In brackets after ≈: the same amount, converted by molar mass. Read-outs that look alike come from different tables or passages of the source.

The source of these data is article PMC11015057 (ACS Infectious Diseases, 2024).

Assay [1] relates to E. coli TOP10 (GyrA^WT, ParC^WT). Kind of assay: microbe, parasite or virus in culture. It counts as cell-based. The settings on record: Escherichia coli.
The subject of assay [2] is E. coli TOP10-3 (GyrA^P35L, ParC^D79N). Kind of assay: MIC, antibacterial susceptibility (CLSI). The settings on record: Escherichia coli. The format is cell-based.
Assay [3] deals with uropathogens, including Escherichia coli. The settings on record: cited from earlier work.

Turning to `O=c1ccc2ncc(=O)n3c2n1C[C@H]3CN1CCC(NCc2cc3c(cn2)OCCC3)CC1` [gepotidacin], the results for the MIC in assay [1] and in assay [2] were 0.125 µg/mL (≈ 0.279 µM) and 16 µg/mL (≈ 35.7 µM), respectively. The “clinical efficacy versus nitrofurantoin” value in assay [3] (EAGLE-3 phase III trial) is “demonstrated statistically significant superiority versus nitrofurantoin”; in assay [3] (phase III trials, patients with confirmed uncomplicated urinary tract infection and uropathogen susceptible to nitrofurantoin), “demonstrated noninferiority to nitrofurantoin”.
